In brackets after ≈: the same amount, converted by molar mass. Read-outs that look alike come from different tables or passages of the source.
Experiments:
[1] = tested on: P. aeruginosa (strain WC-452); assay: 21-day serial passage resistance assay; assay type: cell-based, Pseudomonas aeruginosa; settings: CAA broth, over 18 days of serial passage
Description: The well with the highest concentration of GN lysin in which bacterial growth was seen was then used as the inoculum for the next day's passage, and the process was repeated over a 21 day period. The MIC at each daily time-point was recorded, and resistance was measured as a step-wise increase in MIC.

P. aeruginosa = assay: MIC by modified CLSI broth microdilution in CAA media, CAA with human serum or with Survanta; assay type: cell-based; settings: Pseudomonas aeruginosa
Description: 2015. […] Clinical and Laboratory Standards Institute, Wayne, Pa.

[2] = tested on: carbapenem-resistant P. aeruginosa strains; assay: microbe, parasite or virus in culture; assay type: cell-based, Pseudomonas aeruginosa; settings: for MIC: Pseudomonas aeruginosa; for MIC Combination / MIC Alone: vs. WC-452
Description: Such resensitization may be determined by combining the present lysins or lysin-AMP polypeptide constructs with an antibiotic in a checkerboard assay as described herein. Antibiotic-resistant bacteria, such as carbapenem-resistant P. aeruginosa, are added to the lysin or lysin-AMP polypeptide construct combination. […] See Clinical and Laboratory Standards Institute (CLSI), CLSI. […] M100 Performance Standards for Antimicrobial Susceptibility Testing; 29th Edition. Clinical and Laboratory Standards Institute, Wayne, Pa., which is herein incorporated by reference in its entirety.
Up to seven carbapenem-resistant isolates were assessed. […] See Clinical and Laboratory Standards Institute (CLSI), CLSI. […] M100 Performance Standards for Antimicrobial Susceptibility Testing; 29th Edition. Clinical and Laboratory Standards Institute, Wayne, Pa.

O=C(O)c1cn(C2CC2)c2cc(N3CCNCC3)c(F)cc2c1=O [Ciprofloxacin]
increase of MIC during serial passage [1]: 16 fold

C[C@@H](O)[C@H]1C(=O)N2C(C(=O)O)=C(S[C@@H]3CN[C@H](C(=O)N(C)C)C3)[C@H](C)[C@H]12 [Meropenem, meropenem]
MIC (P. aeruginosa; ATCC17646, read-out: Meropenem MIC (μg/mL), strain CFS 1109 (ATCC 17646)): 0.5 µg/mL (≈ 1.3 µM) | MIC (P. aeruginosa; ATCC27853, read-out: Meropenem MIC (μg/mL), strain CFS 1766 (ATCC 27853)): 1 µg/mL (≈ 2.61 µM) | MIC (P. aeruginosa; PA1, read-out: Meropenem MIC (μg/mL), strain CFS 1539 (PA1)): 16 µg/mL (≈ 41.7 µM) | MIC (P. aeruginosa; read-out: Meropenem MIC (μg/mL), […]): > 32 µg/mL | MIC (P. aeruginosa; read-out: Meropenem MIC (μg/mL), strain CFS 1541 (PA3)): 8 µg/mL (≈ 20.9 µM) | MIC (P. aeruginosa; read-out: Meropenem MIC (μg/mL), strain CFS 1596 (PA26)): 0.5 µg/mL (≈ 1.3 µM) | MIC (P. aeruginosa; read-out: Meropenem MIC (μg/mL), strain CFS 1597 (PA27)): 1 µg/mL (≈ 2.61 µM) | MIC (P. aeruginosa; read-out: Meropenem MIC (μg/mL), strain CFS 1669 (PA41)): < 0.25 µg/mL | MIC (P. aeruginosa; read-out: Meropenem MIC (μg/mL), strain CFS 1674 (PA46)): 4 µg/mL (≈ 10.4 µM) | MIC (P. aeruginosa; read-out: Meropenem MIC (μg/mL), strain CFS 1675 (PA47)): 4 µg/mL (≈ 10.4 µM) | MIC ([2]; GN121, read-out: MIC (μg/mL) Alone, isolate PA19, checkerboard Meropenem + GN121): 32 µg/mL | MIC ([2]; GN121, read-out: MIC (μg/mL) Alone, isolate PA20, checkerboard Meropenem + GN121): 16 µg/mL | MIC ([2]; GN121, read-out: MIC (μg/mL) Alone, isolate PA21, checkerboard Meropenem + GN121): 32 µg/mL | MIC ([2]; GN121, read-out: MIC (μg/mL) Alone, isolate PA22, checkerboard Meropenem + GN121): 16 µg/mL | MIC ([2]; GN121, read-out: MIC (μg/mL) Alone, isolate PA23, checkerboard Meropenem + GN121): 16 µg/mL | MIC ([2]; GN121, read-out: MIC (μg/mL) Alone, isolate PA24, checkerboard Meropenem + GN121): 32 µg/mL | MIC ([2]; GN121, read-out: MIC (μg/mL) Alone, isolate WC-452, checkerboard Meropenem + GN121): 16 µg/mL | MIC ([2]; GN123, read-out: MIC (μg/mL) Alone, isolate PA19, checkerboard MEROPENEM + GN123): 32 µg/mL | MIC ([2]; GN123, read-out: MIC (μg/mL) Alone, isolate PA20, checkerboard MEROPENEM + GN123): 16 µg/mL | MIC ([2]; GN123, read-out: MIC (μg/mL) Alone, isolate PA21, checkerboard MEROPENEM + GN123): 32 µg/mL | MIC ([2]; GN123, read-out: MIC (μg/mL) Alone, isolate PA22, checkerboard MEROPENEM + GN123): 16 µg/mL | MIC ([2]; GN123, read-out: MIC (μg/mL) Alone, isolate PA23, checkerboard MEROPENEM + GN123): 16 µg/mL | MIC ([2]; GN123, read-out: MIC (μg/mL) Alone, isolate PA24, checkerboard MEROPENEM + GN123): 32 µg/mL | MIC ([2]; GN123, read-out: MIC (μg/mL) Alone, isolate WC-452, checkerboard MEROPENEM + GN123): 16 µg/mL | susceptibility category of the isolate, carbapenem Alone ([2]; isolate PA19): (R) ((R) = resistant) | MIC (μg/mL) Combination ([2]; isolate PA19, MEROPENEM combined with GN123): 0.5 µg/mL | MIC (μg/mL) Combination ([2]; isolate PA19, Meropenem combined with GN121): 1 µg/mL | susceptibility category of the isolate, carbapenem in Combination ([2]; isolate PA19, combined with GN123): (S) ((S) = sensitive) | susceptibility category of the isolate, carbapenem Alone ([2]; isolate PA20): (R) ((R) = resistant) | MIC (μg/mL) Combination ([2]; isolate PA20, MEROPENEM combined with GN123): 0.5 µg/mL | MIC (μg/mL) Combination ([2]; isolate PA20, Meropenem combined with GN121): 1 µg/mL | susceptibility category of the isolate, carbapenem in Combination ([2]; isolate PA20, combined with GN123): (S) ((S) = sensitive) | susceptibility category of the isolate, carbapenem Alone ([2]; isolate PA21): (R) ((R) = resistant) | MIC (μg/mL) Combination ([2]; isolate PA21, MEROPENEM combined with GN123): 1 µg/mL | MIC (μg/mL) Combination ([2]; isolate PA21, Meropenem combined with GN121): 2 µg/mL | susceptibility category of the isolate, carbapenem in Combination ([2]; isolate PA21, combined with GN123): (S) ((S) = sensitive) | susceptibility category of the isolate, carbapenem Alone ([2]; isolate PA22): (R) ((R) = resistant) | MIC (μg/mL) Combination ([2]; isolate PA22, MEROPENEM combined with GN123): 1 µg/mL | MIC (μg/mL) Combination ([2]; isolate PA22, Meropenem combined with GN121): 1 µg/mL | susceptibility category of the isolate, carbapenem in Combination ([2]; isolate PA22, combined with GN123): (S) ((S) = sensitive) | susceptibility category of the isolate, carbapenem Alone ([2]; isolate PA23): (R) ((R) = resistant) | MIC (μg/mL) Combination ([2]; isolate PA23, MEROPENEM combined with GN123): 0.5 µg/mL | MIC (μg/mL) Combination ([2]; isolate PA23, Meropenem combined with GN121): 2 µg/mL | susceptibility category of the isolate, carbapenem in Combination ([2]; isolate PA23, combined with GN123): (S) ((S) = sensitive) | susceptibility category of the isolate, carbapenem Alone ([2]; isolate PA24): (R) ((R) = resistant) | MIC (μg/mL) Combination ([2]; isolate PA24, MEROPENEM combined with GN123): 2 µg/mL | MIC (μg/mL) Combination ([2]; isolate PA24, Meropenem combined with GN121): 1 µg/mL | susceptibility category of the isolate, carbapenem in Combination ([2]; isolate PA24, combined with GN123): (S) ((S) = sensitive) | susceptibility category of the isolate, carbapenem Alone ([2]; isolate WC-452): (R) ((R) = resistant) | MIC (μg/mL) Combination ([2]; isolate WC-452, MEROPENEM combined with GN123): 1 µg/mL | MIC (μg/mL) Combination ([2]; isolate WC-452, Meropenem combined with GN121): 1 µg/mL | susceptibility category of the isolate, carbapenem in Combination ([2]; isolate WC-452, combined with GN123): (S) ((S) = sensitive) | susceptibility category of the isolate, carbapenem in Combination ([2]; isolate WC-452, combined with GN351): (S) ((S) = sensitive) | susceptibility category of the isolate, carbapenem in Combination ([2]; isolate WC-452, combined with GN370): (S) ((S) = sensitive) | susceptibility category of the isolate, carbapenem in Combination ([2]; isolate WC-452, combined with GN428): (S) ((S) = sensitive) | MIC Combination ([2]; MEM combined with GN351): 1 mg/L | MIC Combination ([2]; MEM combined with GN370): 0.5 mg/L | MIC Combination ([2]; MEM combined with GN428): 1 mg/L | MIC Alone ([2]; checkerboard MEM + GN351): 16 mg/L | MIC Alone ([2]; checkerboard MEM + GN428): 16 mg/L

From patent US20210147498A1, “USE OF GRAM-NEGATIVE LYSIN-ANTIMICROBIAL PEPTIDE (AMP) POLYPEPTIDE CONSTRUCTS IN PULMONARY SURFACTANT AND BIOFILMS” (priority 2018, published 2021)
